Experimental data published in patent US10730872B2, “Pesticidally active heterocyclic derivatives with sulphur containing sustitutents” (SYNGENTA PARTICIPATIONS AG, priority 2015, dated 2020).

Assays:
Assay type in all cases: in vivo
Spodoptera littoralis [1] = assay: Spodoptera littoralis (Egyptian Cotton Leaf Worm), sprayed cotton leaf discs; conditions: foliar, 72 h, application rate of 200 ppm, L1 larvae, 3 days after infestation
Description: Cotton leaf discs were placed onto agar in 24-well microtiter plates and sprayed with aqueous test solutions prepared from 10,000 ppm DMSO stock solutions. After drying the leaf discs were infested with five L1 larvae. The samples were assessed for mortality, anti-feeding effect, and growth inhibition in comparison to untreated samples 3 days after infestation. Control of Spodoptera littoralis by a test sample is given when at least one of the categories mortality, anti-feedant effect, and growth inhibition is higher than the untreated sample.

Diabrotica balteata = Diabrotica balteata (Corn Root Worm); conditions: 96 h, application rate of 200 ppm, sprayed maize sprouts, L2 larvae, 4 days after infestation, read-out: effect in at least one of the two categories (mortality or growth inhibition)
Description: Maize sprouts placed onto an agar layer in 24-well microtiter plates were treated with aqueous test solutions prepared from 10,000 ppm DMSO stock solutions by spraying. After drying, the plates were infested with L2 larvae (6 to 10 per well). The samples were assessed for mortality and growth inhibition in comparison to untreated samples 4 days after infestation.

Plutella xylostella = Plutella xylostella (Diamond Back Moth); conditions: 120 h, application rate of 200 ppm, artificial diet, L2 larvae, 5 days after infestation, read-out: effect in at least one of the two categories (mortality or growth inhibition)
Description: 24-well microtiter plates with artificial diet were treated with aqueous test solutions prepared from 10,000 ppm DMSO stock solutions by pipetting. After drying, the plates were infested with L2 larvae (10 to 15 per well). The samples were assessed for mortality and growth inhibition in comparison to untreated samples 5 days after infestation.

Tetranychus urticae = Tetranychus urticae (Two-Spotted Spider Mite): Feeding/Contact Activity; conditions: foliar, 192 h, application rate of 200 ppm, sprayed bean leaf discs, mixed population (mobile stages), 8 days after infestation
Description: Bean leaf discs on agar in 24-well microtiter plates were sprayed with aqueous test solutions prepared from 10,000 ppm DMSO stock solutions. After drying the leaf discs were infested with a mite population of mixed ages. The samples were assessed for mortality on mixed population (mobile stages) 8 days after infestation.

Bemisia tabaci = Bemisia tabaci (Cotton White Fly): Feeding/Contact Activity; conditions: foliar, 144 h, application rate of 200 ppm, sprayed cotton leaf discs, adult white flies, 6 days after incubation
Description: Cotton leaf discs were placed on agar in 24-well microtiter plates and sprayed with aqueous test solutions prepared from 10,000 ppm DMSO stock solutions. After drying the leaf discs were infested with adult white flies. The samples were checked for mortality 6 days after incubation.

Spodoptera littoralis [2] = assay: Spodoptera littoralis (Egyptian Cotton Leaf Worm), uptake by lettuce roots from agar; conditions: 144 h, test rate of 12.5 ppm, mixed with agar, absorbed by lettuce roots, Spodoptera eggs, 6 days after infestation, read-out: effect in at least one of the three categories (mortality, anti-feeding, or growth inhibition)
Description: Test compounds were applied by pipette from 10,000 ppm DMSO stock solutions into 24-well plates and mixed with agar. Lettuce seeds were placed onto the agar and the multi well plate was closed by another plate which contained also agar. After 7 days the compound was absorbed by the roots and the lettuce grew into the lid plate. The lettuce leaves were then cut off into the lid plate. Spodoptera eggs were pipetted through a plastic stencil onto a humid gel blotting paper and the lid plate was closed with it. The samples were assessed for mortality, anti-feedant effect and growth inhibition in comparison to untreated samples 6 days after infestation.

Myzus persicae [3] = assay: Myzus persicae (Green Peach Aphid): Feeding/Contact Activity; conditions: foliar, 144 h, application rate of 200 ppm, sprayed sunflower leaf discs, aphid population of mixed ages, 6 days after infestation
Description: Sunflower leaf discs were placed onto agar in a 24-well microtiter plate and sprayed with aqueous test solutions prepared from 10,000 ppm DMSO stock solutions. After drying, the leaf discs were infested with an aphid population of mixed ages. The samples were assessed for mortality 6 days after infestation.

Aedes aegypti = assay: Aedes Aegypti (Yellow Fever Mosquito); conditions: 200 ppm in ethanol, dry deposit in 12 well plates, adult females, after 48 h and/or 24 h
Description: Test solutions, at an application rate of 200 ppm in ethanol, were applied to 12 well tissue culture plates. Once the deposits were dry, five, two to five day old adult female Aedes aegypti were added to each well, and sustained with a 10% sucrose solution in a cotton wool plug. Assessment of knockdown was made one hour after introduction, and mortality was assessed at 24 and 48 hours after introduction.

Euschistus heros = Euschistus heros (Neotropical Brown Stink Bug); conditions: 120 h, application rate of 200 ppm, sprayed soybean leaves, N2 nymphs, 5 days after infestation, read-out: effect in at least one of the two categories (mortality or growth inhibition)
Description: Soybean leaves on agar in 24-well microtiter plates were sprayed with aqueous test solutions prepared from 10,000 ppm DMSO stock solutions. After drying the leaves were infested with N2 nymphs. The samples were assessed for mortality and growth inhibition in comparison to untreated samples 5 days after infestation.

Myzus persicae [4] = assay: Myzus persicae (Green Peach Aphid). Systemic Activity; conditions: 144 h, test rate of 24 ppm, roots of infested pea seedlings in test solution, 6 days
Description: Roots of pea seedlings infested with an aphid population of mixed ages were placed directly into aqueous test solutions prepared from 10,000 DMSO stock solutions. The samples were assessed for mortality 6 days after placing seedlings into test solutions.

CCn1c(C(F)(F)F)cc2nc(-c3nc(NC(=O)OC(C)(C)C)ccc3S(=O)(=O)CC)n(C)c2c1=O [Compound A66, tert-butyl N-[6-[5-ethyl-3-methyl-4-oxo-6-(trifluoromethyl)imidazo[4,5-c]pyridin-2-yl]-5-ethylsulfonyl-2-pyridyl]carbamate]
≥ 80%: percent control (mortality, anti-feeding effect or growth inhibition) at 200 ppm (Spodoptera littoralis [1]) | effect mortality or growth inhibition at 200 ppm (Diabrotica balteata) | percent effect (mortality or growth inhibition) at 200 ppm (Plutella xylostella) | mortality at 200 ppm (Tetranychus urticae) | mortality at 200 ppm (Bemisia tabaci) | percent effect (mortality, anti-feeding or growth inhibition) at 12.5 ppm (Spodoptera littoralis [2])

CCn1c(C(F)(F)F)cc2nc(-c3nc(N(CC(F)(F)F)C(=O)C4CC4)ccc3S(=O)(=O)CC)n(C)c2c1=O [Compound A32, N-[6-[5-ethyl-3-methyl-4-oxo-6-(trifluoromethyl)imidazo[4,5-c]pyridin-2-yl]-5-ethylsulfonyl-2-pyridyl]-N-(2,2,2-trifluoroethyl)cyclopropanecarboxamide]
≥ 80%: percent control (mortality, anti-feeding effect or growth inhibition) at 200 ppm (Spodoptera littoralis [1]) | effect mortality or growth inhibition at 200 ppm (Diabrotica balteata) | percent effect (mortality or growth inhibition) at 200 ppm (Plutella xylostella) | mortality at 200 ppm (Tetranychus urticae)

CCn1c(C(F)(F)F)cc2nc(-c3ncc(N)cc3S(=O)(=O)CC)n(C)c2c1=O [Compound A5, 2-(5-amino-3-ethylsulfonyl-2-pyridyl)-5-ethyl-3-methyl-6-(trifluoromethyl)imidazo[4,5-c]pyridin-4-one]
≥ 80%: percent control (mortality, anti-feeding effect or growth inhibition) at 200 ppm (Spodoptera littoralis [1]) | effect mortality or growth inhibition at 200 ppm (Diabrotica balteata) | percent effect (mortality or growth inhibition) at 200 ppm (Plutella xylostella) | mortality at 200 ppm (Myzus persicae [3]) | pest or weed control at 200 ppm (Aedes aegypti)

CCn1c(C(F)(F)F)cc2nc(-c3ncc(N(C)S(C)(=O)=O)cc3S(=O)(=O)CC)n(C)c2c1=O [Compound A13, N-[6-[5-ethyl-3-methyl-4-oxo-6-(trifluoromethyl)imidazo[4,5-c]pyridin-2-yl]-5-ethylsulfonyl-3-pyridyl]-N-methyl-methanesulfonamide]
≥ 80%: percent control (mortality, anti-feeding effect or growth inhibition) at 200 ppm (Spodoptera littoralis [1]) | percent effect (mortality or growth inhibition) at 200 ppm (Plutella xylostella) | mortality at 200 ppm (Tetranychus urticae) | mortality at 200 ppm (Myzus persicae [3]) | percent effect (mortality or growth inhibition) at 200 ppm (Euschistus heros)

CCn1c(C(F)(F)F)cc2nc(-c3nc(C(=O)O)ccc3S(=O)(=O)CC)n(C)c2c1=O [Compound A4, 6-[5-ethyl-3-methyl-4-oxo-6-(trifluoromethyl)imidazo[4,5-c]pyridin-2-yl]-5-ethylsulfonyl-pyridine-2-carboxylic acid]
≥ 80%: mortality at 200 ppm (Tetranychus urticae)

CCn1c(C(F)(F)F)cc2nc(-c3ncc(NC4(C#N)CC4)cc3S(=O)(=O)CC)n(C)c2c1=O [Compound A24, 1-[[6-[5-ethyl-3-methyl-4-oxo-6-(trifluoromethyl)imidazo[4,5-c]pyridin-2-yl]-5-ethylsulfonyl-3-pyridyl]amino]cyclopropanecarbonitrile]
≥ 80%: percent control (mortality, anti-feeding effect or growth inhibition) at 200 ppm (Spodoptera littoralis [1]) | effect mortality or growth inhibition at 200 ppm (Diabrotica balteata) | percent effect (mortality or growth inhibition) at 200 ppm (Plutella xylostella) | mortality at 200 ppm (Tetranychus urticae) | percent effect (mortality or growth inhibition) at 200 ppm (Euschistus heros)

CCn1c(C(F)(F)F)cc2nc(-c3nc(N)c(C4CC4)cc3S(=O)(=O)CC)n(C)c2c1=O [Compound A71]
≥ 80%: percent control (mortality, anti-feeding effect or growth inhibition) at 200 ppm (Spodoptera littoralis [1]) | mortality at 24 ppm (Myzus persicae [4]) | effect mortality or growth inhibition at 200 ppm (Diabrotica balteata) | percent effect (mortality or growth inhibition) at 200 ppm (Plutella xylostella) | mortality at 200 ppm (Tetranychus urticae) | mortality at 200 ppm (Bemisia tabaci) | mortality at 200 ppm (Myzus persicae [3]) | percent effect (mortality or growth inhibition) at 200 ppm (Euschistus heros)

CCn1c(C(F)(F)F)cc2nc(-c3nc(N)c(Br)cc3S(=O)(=O)CC)n(C)c2c1=O [Compound A39, 2-(6-amino-5-bromo-3-ethylsulfonyl-2-pyridyl)-5-ethyl-3-methyl-6-(trifluoromethyl)imidazo[4,5-c]pyridin-4-one]
≥ 80%: percent control (mortality, anti-feeding effect or growth inhibition) at 200 ppm (Spodoptera littoralis [1]) | effect mortality or growth inhibition at 200 ppm (Diabrotica balteata) | percent effect (mortality or growth inhibition) at 200 ppm (Plutella xylostella) | mortality at 200 ppm (Bemisia tabaci) | mortality at 200 ppm (Myzus persicae [3]) | pest or weed control at 200 ppm (Aedes aegypti) | percent effect (mortality or growth inhibition) at 200 ppm (Euschistus heros) | percent effect (mortality, anti-feeding or growth inhibition) at 12.5 ppm (Spodoptera littoralis [2])

CCn1c(C(F)(F)F)cc2nc(-c3nc(N(C)C4CC4)ccc3S(=O)(=O)CC)n(C)c2c1=O [Compound A12, 2-[6-[cyclopropyl(methyl)amino]-3-ethylsulfonyl-2-pyridyl]-5-ethyl-3-methyl-6-(trifluoromethyl)imidazo[4,5-c]pyridin-4-one]
≥ 80%: percent control (mortality, anti-feeding effect or growth inhibition) at 200 ppm (Spodoptera littoralis [1]) | effect mortality or growth inhibition at 200 ppm (Diabrotica balteata) | percent effect (mortality or growth inhibition) at 200 ppm (Plutella xylostella) | mortality at 200 ppm (Bemisia tabaci) | mortality at 200 ppm (Myzus persicae [3]) | pest or weed control at 200 ppm (Aedes aegypti) | percent effect (mortality or growth inhibition) at 200 ppm (Euschistus heros)

CCn1c(C(F)(F)F)cc2nc(-c3nc(NCC(F)(F)F)ccc3S(=O)(=O)CC)n(C)c2c1=O [Compound A34, 5-ethyl-2-[3-ethylsulfonyl-6-(2,2,2-trifluoroethylamino)-2-pyridyl]-3-methyl-6-(trifluoromethyl)imidazo[4,5-c]pyridin-4-one]
≥ 80%: percent control (mortality, anti-feeding effect or growth inhibition) at 200 ppm (Spodoptera littoralis [1]) | effect mortality or growth inhibition at 200 ppm (Diabrotica balteata) | percent effect (mortality or growth inhibition) at 200 ppm (Plutella xylostella) | mortality at 200 ppm (Tetranychus urticae)

CCn1c(C(F)(F)F)cc2nc(-c3ncc(NC(=O)OC(C)(C)C)cc3S(=O)(=O)CC)n(C)c2c1=O [Compound A64, tert-butyl N-[6-[5-ethyl-3-methyl-4-oxo-6-(trifluoromethyl)imidazo[4,5-c]pyridin-2-yl]-5-ethylsulfonyl-3-pyridyl]carbamate]
≥ 80%: percent control (mortality, anti-feeding effect or growth inhibition) at 200 ppm (Spodoptera littoralis [1]) | percent effect (mortality or growth inhibition) at 200 ppm (Plutella xylostella) | mortality at 200 ppm (Tetranychus urticae) | mortality at 200 ppm (Bemisia tabaci) | percent effect (mortality or growth inhibition) at 200 ppm (Euschistus heros)

CCn1c(C(F)(F)F)cc2nc(-c3ncc(C(=O)NC4CC4)cc3S(=O)(=O)CC)n(C)c2c1=O [Compound A19, N-cyclopropyl-6-[5-ethyl-3-methyl-4-oxo-6-(trifluoromethyl)imidazo[4,5-c]pyridin-2-yl]-5-ethylsulfonyl-pyridine-3-carboxamide]
≥ 80%: mortality at 24 ppm (Myzus persicae [4]) | percent effect (mortality or growth inhibition) at 200 ppm (Plutella xylostella) | mortality at 200 ppm (Tetranychus urticae) | percent effect (mortality or growth inhibition) at 200 ppm (Euschistus heros)

CCS(=O)(=O)c1ccc(N)nc1-c1nc2cc(C(F)(F)F)n(C3CC3)c(=O)c2n1C [Compound A42, 2-(6-amino-3-ethylsulfonyl-2-pyridyl)-5-cyclopropyl-3-methyl-6-(trifluoromethyl)imidazo[4,5-c]pyridin-4-one]
≥ 80%: percent control (mortality, anti-feeding effect or growth inhibition) at 200 ppm (Spodoptera littoralis [1]) | mortality at 24 ppm (Myzus persicae [4]) | effect mortality or growth inhibition at 200 ppm (Diabrotica balteata) | percent effect (mortality or growth inhibition) at 200 ppm (Plutella xylostella) | mortality at 200 ppm (Tetranychus urticae) | mortality at 200 ppm (Bemisia tabaci) | mortality at 200 ppm (Myzus persicae [3]) | percent effect (mortality or growth inhibition) at 200 ppm (Euschistus heros) | percent effect (mortality, anti-feeding or growth inhibition) at 12.5 ppm (Spodoptera littoralis [2])
